The source of these data is ChEMBL document CHEMBL4400505, “Fibroblast Growth Factor Receptor 4 (FGFR4) Selective Inhibitors as Hepatocellular Carcinoma Therapy: Advances and Prospects” (J Med Chem, 2019).

A word on the IC50: it is the midpoint of a concentration-inhibition curve. Read a low IC50 as higher potency.

The experiment has as its target Fibroblast growth factor receptor 3 (Homo sapiens, UniProt P22607). The experiment is described as follows: Inhibition of N-terminal GST-fused human FGFR3 cytoplasmic domain (436 to 806(end) amino acids) using CSKtide substrate incubated for 90 mins.

Sequence of Fibroblast growth factor receptor 3 (P22607 whole entry, the tested form may be a part): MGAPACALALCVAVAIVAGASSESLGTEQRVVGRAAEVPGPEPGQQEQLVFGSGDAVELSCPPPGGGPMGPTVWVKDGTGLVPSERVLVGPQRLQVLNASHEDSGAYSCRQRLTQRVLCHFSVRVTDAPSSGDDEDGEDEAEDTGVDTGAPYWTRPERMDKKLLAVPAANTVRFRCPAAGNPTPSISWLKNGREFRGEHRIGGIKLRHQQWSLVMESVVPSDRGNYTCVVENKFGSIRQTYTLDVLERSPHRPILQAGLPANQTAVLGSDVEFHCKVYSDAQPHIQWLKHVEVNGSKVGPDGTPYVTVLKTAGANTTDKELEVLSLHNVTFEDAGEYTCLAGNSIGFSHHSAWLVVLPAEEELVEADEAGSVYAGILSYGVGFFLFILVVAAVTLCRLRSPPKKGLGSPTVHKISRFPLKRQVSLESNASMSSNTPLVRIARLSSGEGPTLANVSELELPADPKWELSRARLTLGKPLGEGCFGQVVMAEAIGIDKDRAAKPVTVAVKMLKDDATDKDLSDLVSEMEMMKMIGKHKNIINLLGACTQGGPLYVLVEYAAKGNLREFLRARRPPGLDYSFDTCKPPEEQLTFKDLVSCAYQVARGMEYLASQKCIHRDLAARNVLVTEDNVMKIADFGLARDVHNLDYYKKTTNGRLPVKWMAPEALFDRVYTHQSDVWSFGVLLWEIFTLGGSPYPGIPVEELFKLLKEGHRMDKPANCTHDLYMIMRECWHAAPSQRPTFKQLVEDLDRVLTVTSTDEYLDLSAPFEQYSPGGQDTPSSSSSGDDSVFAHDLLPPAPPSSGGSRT

The molecule `C=CC(=O)Nc1cccc(C)c1Nc1ncc2cc(-c3c(Cl)c(OC)cc(OC)c3Cl)ccc2n1` yielded an IC50 of 150 nM.
